The values below come from ChEMBL document CHEMBL5050844 (2019).

One may read the IC50 as the concentration that inhibits the measured activity by half.

Test [1] addresses E3 ubiquitin-protein ligase CBL-B (Homo sapiens, UniProt Q13191). Put plainly: Inhibition of N-terminal Avi-tagged human CBL-B (36 to 427 residues) incubated with 60 nM Src kinase for 1.5 hrs followed by incubation with fluorescently labeled UbcH5B-Ub for 1 hr and measured by TR-FRET assay. Format: single protein. On the technique in general: In TR-FRET formats the signal depends on donor and acceptor labels being close together.

Test [2] can be described thus: Induction of anti-CD3/CD28 antibodies-stimulated human T cell activation at 1 uM assessed fold increase in IL-2 secretion measured by ELISA assay. Format: functional, T cell line. For orientation: In an ELISA, binding on a coated surface is turned into a signal by an enzyme label.
Test [3] is described as follows: Induction of anti-CD3/CD28 antibodies-stimulated human T cell activation at 0.3 uM assessed fold increase in IL-2 secretion measured by ELISA assay. The format is functional, T cell line.
Test [4] in a line: Induction of anti-CD3 antibodies-stimulated human T cell activation at 1 uM assessed fold increase in IL-2 secretion measured by ELISA assay. Note: reference of the scale not given here. Format: functional, T cell line.
A short description of test [5]: Induction of anti-CD3/CD28 antibodies-stimulated human T cell activation at 1 uM assessed fold increase in CD25 expression measured by ELISA assay. Format: functional, T cell line.
A short description of test [6]: Induction of anti-CD3/CD28 antibodies-stimulated human T cell activation at 0.3 uM assessed fold increase in CD25 expression measured by ELISA assay. Format: functional, T cell line.
Test [7] in a line: Induction of anti-CD3 antibodies-stimulated human T cell activation at 1 uM assessed fold increase in CD25 expression measured by ELISA assay. Note: reference of the scale not given here. Format: functional, T cell line.

The structures appear in SMILES notation.

Sequence of E3 ubiquitin-protein ligase CBL-B (Q13191 whole entry, the tested form may be a part): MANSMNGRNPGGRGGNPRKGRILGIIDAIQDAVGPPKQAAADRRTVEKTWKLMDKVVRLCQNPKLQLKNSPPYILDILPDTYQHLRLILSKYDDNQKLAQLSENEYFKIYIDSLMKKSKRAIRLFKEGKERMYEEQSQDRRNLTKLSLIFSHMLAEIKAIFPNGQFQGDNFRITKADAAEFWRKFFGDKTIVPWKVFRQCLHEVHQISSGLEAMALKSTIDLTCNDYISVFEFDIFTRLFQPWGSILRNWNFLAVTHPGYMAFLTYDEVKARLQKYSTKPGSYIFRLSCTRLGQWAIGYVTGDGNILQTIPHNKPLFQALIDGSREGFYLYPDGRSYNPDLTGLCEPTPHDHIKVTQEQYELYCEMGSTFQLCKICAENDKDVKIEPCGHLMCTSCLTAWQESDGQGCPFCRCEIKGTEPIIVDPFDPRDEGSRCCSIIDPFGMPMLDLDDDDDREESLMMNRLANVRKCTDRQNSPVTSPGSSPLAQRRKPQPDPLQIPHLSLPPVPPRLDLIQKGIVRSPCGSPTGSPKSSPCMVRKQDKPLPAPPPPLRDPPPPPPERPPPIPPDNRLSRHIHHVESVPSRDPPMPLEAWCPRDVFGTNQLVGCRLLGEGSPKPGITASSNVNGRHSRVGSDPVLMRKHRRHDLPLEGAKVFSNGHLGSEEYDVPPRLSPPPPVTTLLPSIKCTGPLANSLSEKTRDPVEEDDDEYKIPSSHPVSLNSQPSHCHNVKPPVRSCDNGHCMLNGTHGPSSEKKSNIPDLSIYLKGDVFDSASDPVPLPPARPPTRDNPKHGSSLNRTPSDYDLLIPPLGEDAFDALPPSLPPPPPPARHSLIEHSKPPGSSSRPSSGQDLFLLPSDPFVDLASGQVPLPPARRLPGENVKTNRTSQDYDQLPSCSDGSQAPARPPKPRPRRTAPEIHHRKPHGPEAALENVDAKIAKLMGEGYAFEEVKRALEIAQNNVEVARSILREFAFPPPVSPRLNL

Regarding `C[C@H](c1cc2c(c(C(F)(F)F)c1)CN(c1cccc(C3([C@H](F)c4nncn4C)COC3)c1)C2=O)N1CCC2(CC2)C1` (single isomer, unassigned), the half-inhibitory concentration (IC50) in test [1] was under 0.1 µM. The “fold change (FC)” value in test [2] is “>=7.5”; in test [3], “>=7.5”; in test [4] it was “>=0.201”; in test [5] it was “>=1.76”; in test [6], “>=1.76”; in test [7], “>=1.001”.

In test [1], `Cn1cnnc1CC1(c2cccc(NC(=O)c3cc(CN4CC[C@H](F)C4)nc(C(F)(F)F)n3)c2)COC1` gave an IC50 of under 0.1 µM. Moreover, the “fold change (FC)” value in test [2] was 2.51; in test [3], 1.01; in test [4], 0.051; in test [5], 1.01; in test [6], 1.01; in test [7] it was 0.801.

Take `CN1CCN(c2cc3c(c(C(F)(F)F)c2)CN(c2cccc(C4(Cc5nncn5C)COC4)c2)C3=O)CC12CC2`: in test [1], the IC50 is under 0.1 µM. The “fold change (FC)” value in test [2] is 5; in test [3], 2.51; in test [4], 0.151; in test [5], 1.51; in test [6] it was 1.31; in test [7] it was “>=1.001”.

For `Cn1cnnc1CC1(c2cccc(N3Cc4c(cc(CN5CCC(C#N)CC5)cc4C(F)(F)F)C3=O)c2)COC1`, the half-inhibitory concentration (IC50) in test [1] is under 0.1 µM. For the same compound, the “fold change (FC)” value in test [2] is given as “>=7.5”; in test [3], 5; in test [4], “>=0.201”; in test [5], 1.31; in test [6], 1.31; in test [7] it was “>=1.001”.

Compound `Cc1c[nH]nc1-c1cc([C@H](C)Cc2nncn2C)cc(N2Cc3c(cccc3C(F)(F)F)C2=O)n1` yielded an IC50 in test [1] of at most 0.3 µM. Further, the “fold change (FC)” value was 1.01 in test [2]; 1.01 in test [3]; 0.051 in test [4]; 1.01 in test [5]; 1.01 in test [6]; “<=0.6” in test [7].

In test [1], `C[C@H](Cc1nncn1C)c1cc(C2CC2)nc(N2Cc3c(cccc3C(F)(F)F)C2=O)c1` registered an IC50 of under 0.1 µM. Moreover, the “fold change (FC)” value was found to be 2.51 in test [2]; 1.01 in test [3]; 0.101 in test [4]; 1.01 in test [5]; 1.01 in test [6]; 0.801 in test [7].

Compound `Cn1cnnc1CC1(c2cccc(N3Cc4c(cc(CN5CCC(C)(F)C5)cc4C(F)(F)F)C3=O)c2)COC1` (centres undefined) displayed an IC50 in test [1] of under 0.1 µM. Further, the “fold change (FC)” value is “>=7.5” in test [2]; “>=7.5” in test [3]; “>=0.201” in test [4]; 1.31 in test [5]; 1.31 in test [6]; “>=1.001” in test [7].

In test [1], `Cn1cnnc1CC1(c2cccc(N3Cc4c(cc(CN5CCCC(F)(F)C5)cc4C(F)(F)F)C3=O)c2)COC1` gave an IC50 of under 0.1 µM. Besides, the “fold change (FC)” value is “>=7.5” in test [2]; “>=7.5” in test [3]; “>=0.201” in test [4]; 1.51 in test [5]; 1.51 in test [6]; “>=1.001” in test [7].

In test [1], `Cn1cnnc1CC1(c2cccc(N3Cc4c(cc(CN5C6CCC5CC6)cc4C(F)(F)F)C3=O)c2)COC1` came in with an IC50 of under 0.1 µM. For the same compound, the “fold change (FC)” value in test [2] was “>=7.5”; in test [3] it was “>=7.5”; in test [4] it was “>=0.201”; in test [5] it was 1.51; in test [6], 1.51; in test [7], “>=1.001”.

Turning to `Cn1cnnc1[C@@H](F)C1(c2cccc(N3Cc4c(cc(CN5CCCC5)cc4C(F)(F)F)C3=O)c2)COC1`, the IC50 in test [1] was under 0.1 µM. Besides, the “fold change (FC)” value is “>=7.5” in test [2]; 5 in test [3]; “>=0.201” in test [4]; “>=1.76” in test [5]; “>=1.76” in test [6]; “>=1.001” in test [7].

In test [1], `CN1CC2CC1CN2c1cc2c(c(C(F)(F)F)c1)CN(c1cccc([C@@](C)(F)C(F)(F)c3nncn3C)c1)C2=O` (single isomer, unassigned; 562) yielded an IC50 of under 0.1 µM. Further, the “fold change (FC)” value in test [2] was “>=7.5”; in test [3], 5; in test [4], “>=0.201”; in test [5], 1.51; in test [6] it was 1.51; in test [7], “>=1.001”.

`Cn1cnnc1CC1(c2cccc(N3Cc4c(cc(N5CCC(C(F)F)C5)cc4C(F)(F)F)C3=O)c2)COC1` (centres undefined) showed an IC50 in test [1] of under 0.1 µM. Moreover, the “fold change (FC)” value is on record as 2.51 in test [2]; 1.01 in test [3]; “<=0.05” in test [4]; 1.01 in test [5]; 1.01 in test [6]; 0.601 in test [7].

Consider `C[C@H]1CN(Cc2cc3c(c(C(F)(F)F)c2)CN(c2cccc(C4(Cc5nncn5C)COC4)c2)C3=O)CCO1`, for which the IC50 in test [1] was under 0.1 µM. Besides, the “fold change (FC)” value in test [2] was “>=7.5”; in test [3] it was 5; in test [4], “>=0.201”; in test [5] it was 1.31; in test [6], 1.31; in test [7] it was 0.601.

The compound `Cn1cc2c(n1)CCCN2Cc1cc2c(c(C(F)(F)F)c1)CN(c1cccc(C3(Cc4nncn4C)COC3)c1)C2=O` came in with an IC50 in test [1] of under 0.1 µM. In addition, the “fold change (FC)” value is on record as “>=7.5” in test [2]; 5 in test [3]; “>=0.201” in test [4]; 1.31 in test [5]; 1.01 in test [6]; “>=1.001” in test [7].

Take `COc1ccc2c(c1)CN(Cc1cc3c(c(C(F)(F)F)c1)CN(c1cccc(C4(Cc5nncn5C)COC4)c1)C3=O)C2`: in test [1], the concentration for half-maximal inhibition (IC50) is under 0.1 µM. Besides, the “fold change (FC)” value was “>=7.5” in test [2]; “>=7.5” in test [3]; “>=0.201” in test [4]; 1.31 in test [5]; 1.31 in test [6]; “>=1.001” in test [7].

`Cn1cnnc1CC1(c2cccc(N3Cc4c(cc(C5CCOC5)cc4C(F)(F)F)C3=O)c2)COC1` (centres undefined): the IC50 in test [1] is under 0.1 µM. Besides, the “fold change (FC)” value in test [2] stood at 5; in test [3] it was 2.51; in test [4], 0.101; in test [5], 1.01; in test [6], 1.01; in test [7], 0.801.

With `Cn1cnnc1CC1(c2cccc(N3Cc4c(cc(CN5CCCC5)nc4C4CC4)C3=O)c2)COC1`, in test [1], the IC50 is under 0.1 µM. Moreover, the “fold change (FC)” value in test [2] was 2.51; in test [3] it was 1.01; in test [4], “<=0.05”; in test [5], 1.01; in test [6], 1.01; in test [7] it was “<=0.6”.

Regarding `CC1CN(c2cc3c(c(C(F)(F)F)c2)CN(c2cccc(C4(Cc5nncn5C)COC4)c2)C3=O)C1`, the IC50 in test [1] is under 0.1 µM. Besides, the “fold change (FC)” value in test [2] is 2.51; in test [3], 1.01; in test [4], 0.101; in test [5] it was 1.01; in test [6], 1.01; in test [7], 0.601.

As to `Cn1cnnc1[C@H](F)C1(c2cccc(N3Cc4c(cc(CN5[C@H]6CC[C@H]5CC(F)C6)cc4C(F)(F)F)C3=O)c2)COC1` (some centres undefined), the concentration for half-maximal inhibition (IC50) in test [1] is under 0.1 µM. The “fold change (FC)” value was “>=7.5” in test [2]; “>=7.5” in test [3]; “>=0.201” in test [4]; “>=1.76” in test [5]; “>=1.76” in test [6]; “>=1.001” in test [7].

Compound `CN1C2CCC1CN(c1cc3c(c(C(F)(F)F)c1)CN(c1cccc(C4(Cc5nncn5C)COC4)c1)C3=O)C2` had an IC50 in test [1] of under 0.1 µM. Besides, the “fold change (FC)” value is recorded as 5 in test [2]; 2.51 in test [3]; 0.151 in test [4]; 1.01 in test [5]; 1.01 in test [6]; “>=1.001” in test [7].

Compound `Cn1cnnc1CC1(c2cccc(N3Cc4c(cc(C(O)c5ccccc5)cc4C(F)(F)F)C3=O)c2)COC1` (centres undefined) registered an IC50 in test [1] of under 0.1 µM. The “fold change (FC)” value is “>=7.5” in test [2]; 5 in test [3]; “>=0.201” in test [4]; 1.31 in test [5]; 1.31 in test [6]; “>=1.001” in test [7].

In test [1], `Cn1cnnc1C[C@]1(c2cccc(N3Cc4c(cc(CN5CCC6(CC6)C5)cc4C(F)(F)F)C3=O)c2)CCOC1` came in with an IC50 of under 0.1 µM. For the same compound, the “fold change (FC)” value in test [2] is “>=7.5”; in test [3], “>=7.5”; in test [4] it was “>=0.201”; in test [5] it was 1.01; in test [6], 1.01; in test [7], “>=1.001”.
